From patent publication US4775743A, “Peptide derivatives” (Green Cross Corporation, priority 1985, dated 1988)
Square brackets hold non-standard residues; d marks the D form. Ends that are not written are not given here. Peptide text beside a SMILES is read from it. * marks the point of attachment. Desaminotyrosyl = O=C(CCc1ccc(O)cc1)*; Hyp = O=C(O)[C@@H]1C[C@@H](O)CN1

Key:
[1] = tested on: rat PRP (platelet-rich plasma) / rat washed platelets; experiment: Platelet agglutination inhibitory action (in vitro); assay type: cell-based; conditions: agglutination induced by arachidonic acid (1 mM), thrombin (0.8 U/ml) or Ca ionophore A-23187 (4 μM), FIGS. 1, 2 and 3
Procedure: Blood samples were taken from the abdominal artery of rats by means of a syringe containing 3.8% solution of sodium citrate, and the mixture (sodium citrate:blood=1:9) was centrifuged for ten minutes, giving platelet-rich plasma (PRP).
PRP thus collected was placed in cuvettes and kept in an incubator held at 37° C. for two minutes. Solutions of the compound obtained in Example 1 with different concentrations (diluted with a solution of 1.5 mM EDTA in a mixture of Tris-HCl buffer and sodium chloride solution (1:5)) were added, the resulting mixture in each cuvette was incubated for three minutes, and Ca ionophore A-23187 (final concentration: 4 μM), arachidonic acid (1 mM) or thrombin (0.8 U/ml) was added to measure the degree of agglutination. A solution of heparin sodium was used in place of sodium citrate when arachidonic acid was employed as agglutination inducer.

[2] = background statement on the prior-art compound; cited from earlier work

For C[C@H](NC(=O)CNC(=O)[C@@H]1C[C@@H](O)CN1C(=O)[C@@H]1CCCN1C(=O)CCc1ccc(O)cc1)C(=O)NCC(=O)O [HP, N-3-(4-hydroxyphenyl)propionyl-L-prolyl-L-hydroxyprolyl-glycyl-L-alanyl-glycine] (Desaminotyrosyl-P[Hyp]GAG-OH), which “strength of inhibitory effect against platelet agglutination relative to compound P (control)” value [1] is on record?
The value was “about ten”.

Which “half-life in the blood” value [2] does the source give for P[Hyp]GAG [Compound P] here?
Its value is “about ten”.
